We go through 18 compounds from US20100092385A1, “Novel Heteroaryl Substituted Imidazo [1,2-A] Pyridine Derivatives” (ASTRAZENECA AB, priority 2007, published 2010).

SMILES strings stand for the structures.

This test deals with T1, synthetic Aβ 1-40 (Homo sapiens, UniProt P05067).
T1 construct: using synthetic Aβ 1-40 in 2.7 nM of [^3H]PIB
T1 sequence (P05067 672-711 limits assumed): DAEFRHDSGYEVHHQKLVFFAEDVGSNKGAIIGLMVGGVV
The test is described as follows: Competition binding assay. The conditions noted are these: [3H]PIB as radioligand (2.7 nM), synthetic Aβ 1-40, phosphate buffer pH 7.5, 30 min room temperature; read-out: IC50 in the competion binding assay. The procedure: Competition binding was performed in 384-well FB filter plates using synthetic Aβ 1-40 in 2.7 nM of [^3H]PIB (or another ^3H-labeled radioligand when so mentioned) in phosphate buffer at pH 7.5, by adding various concentrations of non-radioactive compounds originally dissolved in DMSO. The binding mixture was incubated for 30 min at room temperature, followed by vacuum filtration, and subsequently by washing twice with 1% Triton-X100. Scintillation fluid was thereafter added to the collected Aβ 1-40 on the filter plate, and the activity of the bound remaining radioligand ([^3H]PIB or another ^3H-labeled radioligand) was measured using 1450 Microbeta from PerkinElmer. Specific binding was determined according to the competion binding assay described herein. The determined IC50's in the competion binding assays (using [^3H]PIB as radioligand) of […] of the present invention are shown in Table 1.
Regarding `COc1ccc2nc(-c3cnc(N4CCOCC4)nc3)cn2c1` [Example 10, 6-Methoxy-2-(2-morpholin-4-ylpyrimidin-5-yl)imidazo[1,2-a]pyridine], the IC50 came to 1590 nM.

Turning to `COC(=O)c1ccc2nc(-c3ccc(N(C)C)nc3)cn2c1` [Example 19, Methyl 2-(6-dimethylaminopyridin-3-yl)imidazo[2,1-f]pyridine-6-carboxylate], the IC50 amounted to 739 nM.

As to `COc1ccc2nc(-c3ccc(OC)nc3)cn2c1` [Example 5, 6-Methoxy-2-(6-methoxypyridin-3-yl)imidazo[1,2-a]pyridine], the IC50 came to 2840 nM.

Turning to `COc1ccc2nc(-c3cnc(OC)c(Cl)c3)cn2c1` [Example 7, 2-(5-Chloro-6-methoxypyridin-3-yl)-6-methoxyimidazo[1,2-a]pyridine], the IC50 was found to be 709 nM.

In the case of `CN(C)c1ccc(-c2cn3cc(O)ccc3n2)cn1` [Example 4, 2-[6-(Dimethylamino)pyridin-3-yl]imidazo[1,2-a]pyridin-6-ol], the IC50 was 126 nM.

Take `CNc1ccc(-c2cn3cc(OC)ccc3n2)cn1` [Example 1, 5-(6-Methoxyimidazo[1,2-a]pyridin-2-yl)-N-methylpyridin-2-amine]: the IC50 stood at 2470 nM.

As for `COc1ccc2nc(-c3cnc(OC)c(F)c3)cn2c1` [Example 6, 2-(5-Fluoro-6-methoxypyridin-3-yl)-6-methoxyimidazo[1,2-a]pyridine], the IC50 stood at 838 nM.

As for `COc1ccc2nc(-c3ccc(N(C)C)nc3)cn2c1` [Example 3, 5-(6-Methoxyimidazo[1,2-a]pyridin-2-yl)-N,N-dimethylpyridin-2-amine], the IC50 was 386 nM.

With `COc1ccc2nc(-c3ccc(N4CCN(C(=O)OC(C)(C)C)CC4)nc3)cn2c1` [Example 9, tert-Butyl 4-[5-(6-methoxyimidazo[1,2-c]pyridin-2-yl)pyridin-2-yl]piperazine-1-carboxylate], the IC50 is 1360 nM.

Consider `CN(C)c1ccc(-c2cn3cc(C(=O)OCCF)ccc3n2)cn1` [Example 20, 2-Fluoroethyl 2-(6-dimethylaminopyridin-3-yl)imidazo[2,1-f]pyridine-6-carboxylate], for which the IC50 is 16600 nM.

For the compound `CNc1ccc(-c2cn3cc(O)ccc3n2)cn1` [Example 2, 2-[6-(Methylamino)pyridin-3-yl]imidazo[1,2-a]pyridin-6-ol], the IC50 stood at 375 nM.

Consider `COc1ccc2nc(-c3ccc(C(N)=O)nc3)cn2c1` [Example 16, 5-(6-Methoxyimidazo[1,2-a]pyridin-2-yl)pyridine-2-carboxamide], for which the IC50 was 2310 nM.

For `NC(=O)c1ccc(-c2cn3cc(O)ccc3n2)cn1` [Example 17, 5-(6-Hydroxyimidazo[1,2-a]pyridin-2-yl)pyridine-2-carboxamide], the IC50 amounted to 2790 nM.

As to `O=C(OCCF)c1ccc2nc(-c3ccc(F)nc3)cn2c1` [Example 18, 2-Fluoroethyl 2-(6-fluoropyridin-3-yl)imidazo[2,1-f]pyridine-6-carboxylate], the IC50 came to 17900 nM.

Consider `CNc1ccc(-c2cn3cc(C(=O)OC)ccc3n2)cn1` [Example 21, Methyl 2-(6-methylaminopyridin-3-yl)imidazo[2,1-f]pyridine-6-carboxylate], for which the IC50 is 960 nM.

Take `CNc1ccc(-c2cn3cc(C(=O)OCCF)ccc3n2)cn1` [Example 22, 2-Fluoroethyl 2-(6-methylaminopyridin-3-yl)imidazo[2,1-t]pyridine-6-carboxylate]: the IC50 was 469 nM.

In the case of `COc1ccc2nc(-c3ccc(N4CCNCC4)nc3)cn2c1` [Example 8, 6-Methoxy-2-(6-piperazin-1-ylpyridin-3-yl)imidazo[1,2-a]pyridine], the half-maximal inhibitory concentration (IC50) is 8380 nM.

Turning to `COc1ccc2nc(-c3ccc4[nH]ccc4c3)cn2c1` [Example 11, 2-(1H-Indol-5-yl)-6-methoxyimidazo[1,2-a]pyridine], the IC50 was determined as 184 nM.

For orientation: IC50 means the concentration that inhibits the measured activity by half.
